# Patent publication US9006185B2, “Use of cell-permeable peptide inhibitors of the JNK signal transduction pathway for the treatment of various diseases” (Xigen Inflammation Ltd., priority 2008, dated 2015)
# Legend:
# TC-3 cells [1] = test: Cellular import of fluorescein-labeled TAT and TAT-IB1(s) peptides; format: cell-based
# Description: The ability of the L- and D-enantiomeric forms of TAT and TAT-IB1(s) peptides (“TAT-IB peptides”) to enter cells was evaluated. L-TAT, D-TAT, L-TAT-IB1(s), and D-TAT-IB1(s) peptides [SEQ ID NOs: 5, 6, 9 and 12, respectively] were labeled by N-terminal addition of a glycine residue conjugated to fluorescein. Labeled peptides (1 μM) were added to TC-3 cell cultures, which were maintained as described in Example 3. At predetermined times cells were washed with PBS and fixed for five minutes in ice-cold methanol-acetone (1:1) before being examined under a fluorescence microscope. Fluorescein-labeled BSA (1 μM, 12 moles/mole BSA) was used as a control.
# Little to no signal was present at 48 hours.
# Fluorescent signals from these all-D retro-inverso peptides were still very strong 1 week later, and the signal was only slightly diminished at 2 weeks post treatment.
# [2] = test system: recombinant JNK1, JNK2 and JNK3; test: Solid phase kinase assay, phosphorylation of c-Jun, ATF2 and Elk1 by recombinant JNKs; format: biochemical; conditions: GST-Jun (aa 1-73), JNK1, JNK2, JNK3, 0-250 μM dosage study
# Description: The effects of the peptides on JNKs-mediated phosphorylation of their target transcription factors were investigated in vitro. Recombinant and non activated JNK1, JNK2 and JNK3 were produced using a TRANSCRIPTION AND TRANSLATION rabbit reticulocyte lysate kit (Promega) and used in solid phase kinase assays with c-Jun, ATF2 and Elk1, either alone or fused to glutathione-S-transferase (GST), as substrates. Dose response studies were performed wherein L-TAT or L-TAT-IB1(s) peptides (0-25 μM) were mixed with the recombinant JNK1, JNK2, or JNK3 kinases in reaction buffer (20 mM Tris-acetate, 1 mM EGTA, 10 mM p-nitrophenyl-phosphate (pNPP), 5 mM sodium pyrophosphate, 10 mM p-glycerophosphate, 1 mM dithiothreitol) for 20 minutes. The kinase reactions were then initiated by the addition of 10 mM MgCl2 and 5 pCi ^33P-dATP and 1 μg of either GST-Jun (aa 1-89), GST-AFT2 (aa 1-96) or GST-ELK1 (aa 307-428). GST-fusion proteins were purchased from Stratagene (La Jolla, Calif.).
# Ten μL of glutathione-agarose beads were also added to the mixture. Reaction products were then separated by SDS-PAGE on a denaturing 10% polyacrylamide gel. Gels were dried and subsequently exposed to X-ray films (Kodak). […] The ability of D-TAT, D-TAT-IB1(s) and L-TAT-IB1(s) peptides (0-250 μM dosage study) to inhibit GST-Jun (aa 1-73) phosphorylation by recombinant JNK1, JNK2, and JNK3 by were analyzed as described above. […]
# TC-3 cells [3] = test: IL-1 induced pancreatic beta-cell death, peptide treatment; format: cell-based; conditions: one single addition 1 μM, 15 days of incubation with IL-1
# Description: Inhibition of IL-1 induced pancreatic beta-cell death by the D-TAT-IB1(s) peptide was analyzed. TC-3 cells were incubated as described above for 30 minutes with one single addition of the indicated peptides (1, μM), then IL-1 (10 ng/ml) was added.
# Apoptotic cells were then counted after two days of incubation with IL-1 by use of Propidium Iodide and Hoechst 33342 nuclear staining. A minimum of 1,000 cells were counted for each experiment. Standard Error of the Means (SEM) are indicated, n=5.
# Long term inhibition of IL-1P induced cell-death by the D-TAT-IB1 peptide was also analyzed. TC-3 cells were incubated as above for 30 minutes with one single addition of the indicated peptides (1 μM), then IL-1 (10 ng/ml) was added, followed by addition of the cytokine every two days. Apoptotic cells were then counted after 15 days of incubation with IL-1 by use of propidium iodide and Hoechst 33342 nuclear staining. […] A minimum of 1.000 cells were counted for each experiment.
# [4] = test system: Primary cultured macrophages; format: cell-based
# Description: FIG. 24 Primary cultured macrophages were incubated with XG-102 (SEQ ID NO: 11) and extensively washed.
# murine T cells = test: PMA & ionomycin-induced cytokine production in murine T cells; format: cell-based
# [5] = kept at 4-8° C
# Description: Unused diluted material could be stored for up to 7 days if kept at 4-8° C. c) Experimental Procedure
smiles,measurement,setting,value
CC(C)C[C@@H](NC(=O)[C@@H](Cc1ccccc1)NC(=O)[C@H]1CCCN1C(=O)[C@@H](CCC(N)=O)NC(=O)[C@H](NC(=O)[C@H]1CCCN1C(=O)[C@@H](CCCNC(=N)N)NC(=O)[C@@H](CO)NC(=O)[C@@H](CCC(N)=O)NC(=O)[C@H](N)CC(=O)O)C(C)C)C(=O)N[C@H](CC(N)=O)C(=O)N[C@H](CC(C)C)C(=O)N[C@@H](C(=O)N[C@@H](C(=O)N1CCC[C@@H]1C(=O)N[C@H](CCCNC(=N)N)C(=O)N[C@H](CCCCN)C(=O)N1CCC[C@@H]1C(=O)N[C@H](CCCNC(=N)N)C(=O)N1CCC[C@@H]1C(=O)N1CCC[C@@H]1C(=O)N[C@H](CCCNC(=N)N)C(=O)N[C@H](CCCNC(=N)N)C(=O)N[C@H](CCCNC(=N)N)C(=O)N[C@H](CCC(N)=O)C(=O)N[C@H](CCCNC(=N)N)C(=O)N[C@H](CCCNC(=N)N)C(=O)N[C@H](CCCCN)C(=O)N[C@H](CCCCN)C(=O)N[C@H](CCCNC(=N)N)C(=O)NCC(=O)O)[C@H](C)O)[C@H](C)O [XG-102],entry into cells (fluorescence microscopy),TC-3 cells [1],efficiently and rapidly (less than five minutes) entered cells
same,stability inside the cells,TC-3 cells [1],extremely stable inside the cells
same,"efficiency in decreasing JNK-mediated phosphorylation of c-Jun, fold less than L-TAT-IB1(s)",[2],10-20 fold
same,long term protection from IL-1 induced cell death,TC-3 cells [3],able to confer long term (15 day) protection
same,incorporation into primary macrophages,[4],strongly incorporated into primary macrophages
same,PMA & ionomycin-induced TNFa and IFNg production,murine T cells,also inhibits cytokine release in primary lymphoid and myeloid cells
same,storage of unused diluted material,[5],up to 7 days
